Molecules are shown by their SMILES. Numbered stars: 1 amine (or outer) side, 2 acyl side, 3 side chain; on linkers, the order of the positions; unused ones are H or OH. Bridge positions count the residues as written; N and C are the ends. Square brackets hold non-standard residues; d marks the D form. Peptide text beside a SMILES is read from it. * marks the point of attachment. hPhe(3,5-F2-4-CF3) = N[C@@H](CCc1cc(F)c(C(F)(F)F)c(F)c1)C(=O)O; hPhe(3-Cl-4-CF3) = N[C@@H](CCc1ccc(C(F)(F)F)c(Cl)c1)C(=O)O; hPhe(3-F,4-CF3) = N[C@@H](CCc1ccc(C(F)(F)F)c(F)c1)C(=O)O; Phe(2-F,5-Br) = N[C@@H](Cc1cc(Br)ccc1F)C(=O)O; NEtPhe(4-Me) = CCN[C@@H](Cc1ccc(C)cc1)C(=O)O; NMePhe(4-Cl) = CN[C@@H](Cc1ccc(Cl)cc1)C(=O)O; NMePhe(4-Me) = CN[C@@H](Cc1ccc(C)cc1)C(=O)O; NMeNle(6-CHF2) = CN[C@@H](CCCCC(F)F)C(=O)O; NMeMet(O2) = CN[C@@H](CCS(C)(=O)=O)C(=O)O; NMedβ3hAla = C[C@H](CC(=O)[*:2])N(C)[*:1]; NMeGly(cPent) = CN[C@H](C(=O)O)C1CCCC1; Phe(3-I) = N[C@@H](Cc1cccc(I)c1)C(=O)O; NMe3Pal = CN[C@@H](Cc1cccnc1)C(=O)O; NMeY = CN[C@@H](Cc1ccc(O)cc1)C(=O)O; NMeCha = CN[C@@H](CC1CCCCC1)C(=O)O; NMeChg = CN[C@H](C(=O)O)C1CCCCC1; NMeI = CC[C@H](C)[C@H](NC)C(=O)O; NMeD = CN[C@@H](CC(=O)O)C(=O)O; NMeL = CN[C@@H](CC(C)C)C(=O)O; Chg = N[C@H](C(=O)O)C1CCCCC1; NMeV = CN[C@H](C(=O)O)C(C)C; NMeAbu = CC[C@H](NC)C(=O)O; NMeS = CN[C@@H](CO)C(=O)O; Morpholide = C1CN(*)CCO1; NMeA = CN[C@@H](C)C(=O)O; NMeAib = CNC(C)(C)C(=O)O; Nle = CCCC[C@H](N)C(=O)O; Piperidide = C1CCN(*)CC1; Pyrrolidide = C1CCN(*)C1; dNMeA = CN[C@H](C)C(=O)O; Ac5c = NC1(C(=O)O)CCCC1; Aze = O=C(O)[C@@H]1CCN1; Aib = CC(C)(N)C(=O)O; Sar = CNCC(=O)O Some results are limits rather than exact numbers.

The test system of the test is Human pancreatic cancer cell line AsPC-1 (G12D mutation Kras). Briefly: AsPC-1 cell growth inhibition (AsPC-1 CGI). Format: cell-based. The following applies: read-out: AsPC-1 cell growth inhibition, 50% growth inhibitory concentration (IC50 value); 96 hours, CellTiter-Glo, values classified in ranges. For orientation: ATP-based viability assays read luminescence as a measure of living cells.
Experimental: Test compounds were serially dilated with dimethyl sulfoxide, and 200 nL was then dispensed to a U-bottom 96-well plate using Labcyte Echo. […] The cell suspension was dispensed to a. plate containing a test compound at 100 μL per well and incubated at 37° C. in a 5% carbon dioxide gas incubator. 96 hours later, 80 μL of CellTiter-Glo (Promega) was added to each well and fluorescence was measured.
`CC[C@H](C)[C@@H]1NC(=O)[C@H](C)N(C)C(=O)C[C@@H](C(=O)N2CCOCC2)N(C)C(=O)[C@H](C(C)C)N(C)C(=O)C2(CCCC2)NC(=O)[C@@H]2CCCN2C(=O)[C@H](CCc2ccc(C(F)(F)F)c(Cl)c2)NC(=O)[C@@H](C)N(C)C(=O)[C@H](CC2CCCCC2)N(C)C(=O)[C@@H]2CCCN2C(=O)CN(C)C1=O` [Compound 1788] ([NMeA]I[Sar]P[NMeCha][dNMeA][hPhe(3-Cl-4-CF3)]P[Ac5c][NMeV][NMeD]-Morpholide; lactam N-11): the IC50 was more than 0.5 µM. For `CC[C@H](C)[C@@H]1NC(=O)[C@H](CC(C)C)N(C)C(=O)C[C@@H](C(=O)N2CCCCC2)N(C)C(=O)[C@H](C2CCCCC2)N(C)C(=O)C2(CCCC2)NC(=O)[C@@H]2CCCN2C(=O)[C@H](CCc2ccc(C(F)(F)F)c(Cl)c2)NC(=O)CN(C)C(=O)[C@H](CO)N(C)C(=O)CN(C)C(=O)CN(C)C1=O` [Compound 1687] ([NMeL]I[Sar][Sar][NMeS][Sar][hPhe(3-Cl-4-CF3)]P[Ac5c][NMeChg][NMeD]-Piperidide; lactam N-11), the IC50 was more than 0.5 µM. For the compound `CC[C@H](C)[C@@H]1NC(=O)[C@H](CC(C)C)N(C)C(=O)C[C@@H](C(=O)N(C)C)N(C)C(=O)[C@H]([C@@H](C)CC)N(C)C(=O)[C@H](C)NC(=O)[C@H](Cc2cccnc2)N(C)C(=O)[C@H](CCc2ccc(C(F)(F)F)c(Cl)c2)NC(=O)CN(C)C(=O)[C@H](Cc2ccc(C)cc2)N(C)C(=O)[C@@H]2CCN2C(=O)[C@H](C)N(C)C1=O` [Compound 557] ([NMeL]I[NMeA][Aze][NMePhe(4-Me)][Sar][hPhe(3-Cl-4-CF3)][NMe3Pal]A[NMeI][NMeD]-NMe2; lactam N-11), the IC50 was more than 0.5 µM.

With `CCCC[C@@H]1NC(=O)C(C)(C)N(C)C(=O)[C@H](CCCC)NC(=O)[C@H](Cc2cccc(I)c2)NC(=O)CN(C)C(=O)[C@H](Cc2ccc(Cl)cc2)N(C)C(=O)CN(C)C(=O)CN(C)C(=O)[C@H]([C@@H](C)CC)NC(=O)[C@H](CC(C)C)N(C)C(=O)C[C@@H](C(=O)N2CCCCC2)N(C)C1=O` [Compound 765] ([NMeL]I[Sar][Sar][NMePhe(4-Cl)][Sar][Phe(3-I)][Nle][NMeAib][Nle][NMeD]-Piperidide; lactam N-11), the IC50 is more than 0.5 µM.

Turning to `CC[C@H](C)[C@@H]1NC(=O)[C@H](CC(C)C)N(C)C(=O)C[C@@H](C(=O)N2CCCCC2)N(C)C(=O)[C@H](C2CCCCC2)N(C)C(=O)C2(CCCC2)NC(=O)[C@@H]2CCCN2C(=O)[C@H](CCc2ccc(C(F)(F)F)c(Cl)c2)NC(=O)CN(C)C(=O)[C@H](CCS(C)(=O)=O)N(C)C(=O)CN(C)C(=O)CN(C)C1=O` [Compound 1094] ([NMeL]I[Sar][Sar][NMeMet(O2)][Sar][hPhe(3-Cl-4-CF3)]P[Ac5c][NMeChg][NMeD]-Piperidide; lactam N-11), the IC50 was more than 0.5 µM.

For `CC[C@H](C)[C@@H]1NC(=O)[C@H](CC(C)C)N(C)C(=O)C[C@@H](C(=O)N2CCOCC2)N(C)C(=O)[C@H](C2CCCC2)N(C)C(=O)C2(CCCC2)NC(=O)[C@@H]2CCCN2C(=O)[C@H](CCc2cc(F)c(C(F)(F)F)c(F)c2)NC(=O)CN(C)C(=O)[C@H](Cc2ccc(C)cc2)N(CC)C(=O)[C@@H]2CCN2C(=O)[C@H](C)N(C)C1=O` [Compound 1368] ([NMeL]I[NMeA][Aze][NEtPhe(4-Me)][Sar][hPhe(3,5-F2-4-CF3)]P[Ac5c][NMeGly(cPent)][NMeD]-Morpholide; lactam N-11), the IC50 was not above 0.02 µM. With `CC(C)C[C@H]1C(=O)N[C@@H](C2CCCCC2)C(=O)N(C)CC(=O)N(C)CC(=O)N(C)[C@@H](CCCCC(F)F)C(=O)N(C)CC(=O)N[C@@H](CCc2ccc(C(F)(F)F)c(F)c2)C(=O)N(C)[C@@H](CC(C)C)C(=O)NC(C)(C)C(=O)N(C)[C@@H](CC(C)C)C(=O)N[C@H](C(=O)N2CCCC2)CC(=O)N1C` [Compound 1453] ([NMeL][Chg][Sar][Sar][NMeNle(6-CHF2)][Sar][hPhe(3-F,4-CF3)][NMeL][Aib][NMeL]D-Pyrrolidide; lactam N-11), the IC50 is more than 0.5 µM. Consider `CC[C@H](C)[C@@H]1NC(=O)[C@H](CC(C)C)N(C)C(=O)C[C@@H](C)N(C)C(=O)[C@H](CC(C)C)NC(=O)C(C)(C)N(C)C(=O)[C@H](CC(C)C)NC(=O)[C@H](CCc2ccc(C(F)(F)F)c(F)c2)NC(=O)CN(C)C(=O)[C@H](CC2CCCCC2)N(C)C(=O)CN(C)C(=O)[C@@H]2CCN2C1=O` [Compound 905] (cyclo([Aze][Sar][NMeCha][Sar][hPhe(3-F,4-CF3)]L[NMeAib]L[NMedβ3hAla][NMeL]I)), for which the IC50 was more than 0.5 µM. Next, `CCCC[C@@H]1NC(=O)[C@H](Cc2cc(Br)ccc2F)NC(=O)CN(C)C(=O)[C@H](Cc2ccc(OC)cc2)N(C)C(=O)[C@@H]2CCN2C(=O)[C@H](C)N(C)C(=O)[C@H]([C@@H](C)CC)NC(=O)[C@H](CC)N(C)C(=O)C[C@@H](C(=O)N2CCCCC2)N(C)C(=O)[C@H](CC(C)C)NC(=O)C(C)(C)N(C)C1=O` [Compound 1177] ([NMeAbu]I[NMeA][Aze][NMeY](Me)[Sar][Phe(2-F,5-Br)][Nle][NMeAib]L[NMeD]-Piperidide; lactam N-11): more than 0.5 µM.

For the origin of these results see patent US20240148821A1, “PHARMACEUTICAL USE OF CYCLIC PEPTIDE COMPOUND” (CHUGAI SEIYAKU KABUSHIKI KAISHA, priority 2021, published 2024).
